Experimental data: patent US20060030616A1, “Anhydride modified cantharidin analogues useful in the treatment of cancer” (priority 1998, published 2006)

How the values were obtained:
L1210 cells = test: Cell cycle analysis, flow cytometry of propidium iodide stained cells; assay type: cell-based, murine
Procedure: (§1) The cells are fixed in 70% ethanol and stored at −20° C. until analysis is performed (1-2 weeks). After fixing, the cells are pelleted and incubated in PBS containing propidium iodide ([…]) and RNase A (200 mg/ml) for at least 30 min at room temperature. The samples (2×10^4 events) are analysed using a Becton Dickson FACScan, fluorescence is collected in fluorescence detector 2 (FL2), filter 575/30 nm band pass. Cell cycle distribution is assessed using Cell Quest software (Becton Dickson).
(§2) The ability of the protein phosphatase inhibitors to abrogate the G1 or G2 checkpoint of the cell cycle may be determined by cell cycle analysis using flow cytometry. Briefly, asynchronous cell cultures are harvested 18 h after 6 Gy irradiation and/or 12 h incubation with the protein phosphatase inhibitor. Depending upon the p53 status of the cell line, radiation treatment alone will induce arrest in either G1 and/or G2 phase of the cell cycle.
Data shown in Table 2 and FIG. 4 show the cell cycle response of L1210, HL60, HT29 and HCT116 cells to cantharidin and the new cantharidin analogues MK-2 and MK-4 after 12 h exposure. In summary, cantharidin and MK-2 produced a similar response and induced G2 arrest in all four cell lines tested. […] HL60 and HCT116 cells. […] The magnitude of the cell cycle arrest induced by these drugs directly correlated with their cytotoxicity in the respective cell lines. […] The cytotoxicity of the […]

HCT116 cells = test: Checkpoint abrogation after 6 Gy radiation, flow cytometry; assay type: cell-based, human; conditions: 12 h after drug
Procedure: as §1, §2
(§3) If the protein phosphatase inhibitor abrogates the G2 checkpoint then the cells will not arrest in the G2 phase of the cell cycle and the cells will continue through the cell cycle and accumulate in the G1 phase of the cell cycle only. Similarily if the protein phosphatase inhibitors abrogates the G1 checkpoint then the cells will not arrest in the G1 phase of the cell cycle and accumulate in the G2 phase of the cell cycle only. Cell cycle analysis using propidium iodide labelling of DNA has been used extensively in our laboratory to assess the effect of specific anticancer agents that induce S-phase cell cycle arrest and apoptotic cell death (Sakoff, Ackland and Stewart, 1998). Experiments were performed on a Becton Dickinson FACScan and using Cell Quest software.
(§4) The cells were treated with 6 Gy of radiation and then treated with cantharidin 6 h later. The ability to abrogate cell cycle arrest was assessed is 12 h after the addition of the drugs.

HL60 cells = test: as above; assay type: cell-based, human; conditions: 12 h after drug
Procedure: as §1, §2, §3, §4

Q: For C[C@@]12C(=O)OC(=O)[C@]1(C)[C@H]1CC[C@@H]2O1 [Cantharidin, exo.exo-2.3-dimethyl-7-oxobicyclo[2.2.1]heptane-2,3-dicarboxylic acid anhydride], which “Cell Cycle Distribution, G1” value (L1210 cells; L1210, 1 μM, 12 h) is on record?
A: 45.8 percentage of total

Q: And the “Cell Cycle Distribution, G2 + M” value (L1210 cells; L1210, 1 μM, 12 h)?
A: 21.6 percentage of total

Q: What about the “Cell Cycle Distribution, S” value (L1210 cells; L1210, 1 μM, 12 h) of the same compound?
A: 33.7 percentage of total

Q: And the “Cell Cycle Distribution, sub G1” value (L1210 cells; L1210, 1 μM, 12 h)?
A: 0.5 percentage of total

Q: And the “Cell Cycle Distribution, G1” value (L1210 cells; L1210, 5 μM, 12 h)?
A: 46.5 percentage of total

Q: And the “Cell Cycle Distribution, G2 + M” value (L1210 cells; L1210, 5 μM, 12 h)?
A: 21.9 percentage of total

Q: What about the “Cell Cycle Distribution, S” value (L1210 cells; L1210, 5 μM, 12 h) of the same compound?
A: 32.6 percentage of total

Q: What about the “Cell Cycle Distribution, sub G1” value (L1210 cells; L1210, 5 μM, 12 h) of the same compound?
A: 0.6 percentage of total

Q: What about the “Cell Cycle Distribution, G1” value (L1210 cells; L1210, 10 μM, 12 h) of the same compound?
A: 49.1 percentage of total

Q: And the “Cell Cycle Distribution, G2 + M” value (L1210 cells; L1210, 10 μM, 12 h)?
A: 18.9 percentage of total

Q: What about the “Cell Cycle Distribution, S” value (L1210 cells; L1210, 10 μM, 12 h) of the same compound?
A: 33.0 percentage of total

Q: What about the “Cell Cycle Distribution, sub G1” value (L1210 cells; L1210, 10 μM, 12 h) of the same compound?
A: 0.5 percentage of total

Q: What about the “Cell Cycle Distribution, G1” value (L1210 cells; L1210, 50 μM, 12 h) of the same compound?
A: 22.0 percentage of total

Q: What about the “Cell Cycle Distribution, G2 + M” value (L1210 cells; L1210, 50 μM, 12 h) of the same compound?
A: 50.6 percentage of total

Q: And the “Cell Cycle Distribution, S” value (L1210 cells; L1210, 50 μM, 12 h)?
A: 27.8 percentage of total

Q: And the “Cell Cycle Distribution, sub G1” value (L1210 cells; L1210, 50 μM, 12 h)?
A: 1.9 percentage of total

Q: What about the Cell cycle remark (L1210 cells; L1210, 50 μM, 12 h) of the same compound?
A: G2 arrest

Q: And the “Cell cycle response” value (L1210 cells; L1210, 12 h exposure)?
A: G2 arrest

Q: And the “Cell Cycle Distribution, G1” value (HCT116 cells; HCT116, 1 μM, 18 h after 6Gy)?
A: 26.1 percentage of total

Q: And the “Cell Cycle Distribution, G2 + M” value (HCT116 cells; HCT116, 1 μM, 18 h after 6Gy)?
A: 58.2 percentage of total

Q: What about the “Cell Cycle Distribution, S” value (HCT116 cells; HCT116, 1 μM, 18 h after 6Gy) of the same compound?
A: 13.8 percentage of total

Q: What about the “Cell Cycle Distribution, sub G” value (HCT116 cells; HCT116, 1 μM, 18 h after 6Gy) of the same compound?
A: 4.2 percentage of total

Q: And the “Cell Cycle Distribution, G1” value (HCT116 cells; HCT116, 5 μM, 18 h after 6Gy)?
A: 23.6 percentage of total

Q: What about the “Cell Cycle Distribution, G2 + M” value (HCT116 cells; HCT116, 5 μM, 18 h after 6Gy) of the same compound?
A: 63.3 percentage of total

Q: And the “Cell Cycle Distribution, S” value (HCT116 cells; HCT116, 5 μM, 18 h after 6Gy)?
A: 10.4 percentage of total

Q: What about the “Cell Cycle Distribution, sub G” value (HCT116 cells; HCT116, 5 μM, 18 h after 6Gy) of the same compound?
A: 4.0 percentage of total

Q: And the “Cell Cycle Distribution, G1” value (HCT116 cells; HCT116, 10 μM, 18 h after 6Gy)?
A: 25.7 percentage of total

Q: What about the “Cell Cycle Distribution, G2 + M” value (HCT116 cells; HCT116, 10 μM, 18 h after 6Gy) of the same compound?
A: 62.2 percentage of total

Q: And the “Cell Cycle Distribution, S” value (HCT116 cells; HCT116, 10 μM, 18 h after 6Gy)?
A: 9.4 percentage of total

Q: What about the “Cell Cycle Distribution, sub G” value (HCT116 cells; HCT116, 10 μM, 18 h after 6Gy) of the same compound?
A: 4.2 percentage of total

Q: And the “Cell Cycle Distribution, G1” value (HCT116 cells; HCT116, 50 μM, 18 h after 6Gy)?
A: 12.2 percentage of total

Q: And the “Cell Cycle Distribution, G2 + M” value (HCT116 cells; HCT116, 50 μM, 18 h after 6Gy)?
A: 63.3 percentage of total

Q: What about the “Cell Cycle Distribution, S” value (HCT116 cells; HCT116, 50 μM, 18 h after 6Gy) of the same compound?
A: 15.6 percentage of total

Q: What about the “Cell Cycle Distribution, sub G” value (HCT116 cells; HCT116, 50 μM, 18 h after 6Gy) of the same compound?
A: 12.0 percentage of total

Q: What about the Checkpoint remark (HCT116 cells; HCT116, 50 μM, 18 h after 6Gy) of the same compound?
A: G1 abrogation

Q: What about the “Checkpoint abrogation” value (HCT116 cells; HCT116, 6 Gy) of the same compound?
A: abrogated radiation induced G1 arrest

Q: And the “Cell Cycle Distribution, G1” value (HL60 cells; HL60, 1 μM, 18 h after 6Gy)?
A: 5.2 percentage of total

Q: And the “Cell Cycle Distribution, G2 + M” value (HL60 cells; HL60, 1 μM, 18 h after 6Gy)?
A: 85.8 percentage of total

Q: And the “Cell Cycle Distribution, S” value (HL60 cells; HL60, 1 μM, 18 h after 6Gy)?
A: 3.0 percentage of total

Q: What about the “Cell Cycle Distribution, sub G” value (HL60 cells; HL60, 1 μM, 18 h after 6Gy) of the same compound?
A: 6.2 percentage of total

Q: What about the “Cell Cycle Distribution, G1” value (HL60 cells; HL60, 5 μM, 18 h after 6Gy) of the same compound?
A: 5.7 percentage of total

Q: What about the “Cell Cycle Distribution, G2 + M” value (HL60 cells; HL60, 5 μM, 18 h after 6Gy) of the same compound?
A: 86.8 percentage of total

Q: What about the “Cell Cycle Distribution, S” value (HL60 cells; HL60, 5 μM, 18 h after 6Gy) of the same compound?
A: 3.5 percentage of total

Q: What about the “Cell Cycle Distribution, sub G” value (HL60 cells; HL60, 5 μM, 18 h after 6Gy) of the same compound?
A: 4.4 percentage of total

Q: And the “Cell Cycle Distribution, G1” value (HL60 cells; HL60, 10 μM, 18 h after 6Gy)?
A: 5.6 percentage of total

Q: What about the “Cell Cycle Distribution, G2 + M” value (HL60 cells; HL60, 10 μM, 18 h after 6Gy) of the same compound?
A: 85.1 percentage of total

Q: What about the “Cell Cycle Distribution, S” value (HL60 cells; HL60, 10 μM, 18 h after 6Gy) of the same compound?
A: 4.3 percentage of total

Q: And the “Cell Cycle Distribution, sub G” value (HL60 cells; HL60, 10 μM, 18 h after 6Gy)?
A: 5.3 percentage of total

Q: And the “Cell Cycle Distribution, G1” value (HL60 cells; HL60, 50 μM, 18 h after 6Gy)?
A: 10.2 percentage of total

Q: And the “Cell Cycle Distribution, G2 + M” value (HL60 cells; HL60, 50 μM, 18 h after 6Gy)?
A: 64.9 percentage of total

Q: And the “Cell Cycle Distribution, S” value (HL60 cells; HL60, 50 μM, 18 h after 6Gy)?
A: 11.3 percentage of total

Q: What about the “Cell Cycle Distribution, sub G” value (HL60 cells; HL60, 50 μM, 18 h after 6Gy) of the same compound?
A: 14.3 percentage of total

Q: What about the Checkpoint remark (HL60 cells; HL60, 50 μM, 18 h after 6Gy) of the same compound?
A: Cell Death

Q: What about the “Checkpoint abrogation” value (HL60 cells; HL60, 6 Gy) of the same compound?
A: abrogated radiation induced G1 arrest
